Data set [1] concerns HCT-116 cells. The conditions noted are these: 48 h. As for the experimental part:
(§1) The anticancer activity of the dolastatin 15 analogs 5a‐i was tested in comparison with cemadotin and the N‐methylated cemadotin derivative 5j against three human cancer cell lines, namely prostate adenocarcinoma PC‐3 cells, colorectal carcinoma HCT‐116 cells, and triple‐negative breast cancer MDA‐MB‐468 cells. In vitro cell viability and cytotoxicity assays were conducted and IC50 curves, and values were determined using the resazurin assay and fluorometric read‐out after 48 h cells’ treatment with the compounds in concentrations covering the micro‐ and nanomolar range (Figure S83, Supporting Information, SI).
(§2) Material and methods for cell-based assays
(§3) Human cell culture materials and cultivation methodology
(§4) The in vitro cell viability and cytotoxicity assays were performed with the human prostate cancer cell line PC-3, the human colorectal cancer cell line HCT-116 and the human triple-negative breast cancer cell line MDA-MB-468; the fluorescence microscopic inspections just with PC-3 cells. The cell lines were obtained from DSMZ (Braunschweig, Germany) and ATCC (Manassas, VA, USA) and cultivated in their specific growth medium. PC-3 cells were cultivated in RPMI 1640 supplemented with 1% (v/v) glutamine, and 10% (v/v) he at-inactivated fetal calf serum (FCS); HCT-116 was cultured in McCoy’s 5a Modified Medium supplemented with 10% (v/v) heat-inactivated FCS; and for MDA-MB-468, DMEM high glucose (4.5 g/L) supplemented with 10% (v/v) heat-inactivated FCS was used.
(§5) All the basal culture media and supplements, like glutamine and FCS, PBS and 0.05% trypsin-EDTA for cell detachment were purchased from Capricorn Scientific GmbH (Ebsdorfergrund, Germany). Cell culture plastics were used from TPP (Trasadingen, Switzerland), Greiner Bio-One (Frickenhausen, Germany) and Sarstedt (Nürnbrecht, Germany). Digitonin was purchased from Riedel De Haën (Seelze, Germany) and DMSO from Duchefa Biochemie (Haarlem, The Netherlands). Resazurin was used from Sigma-Aldrich Chemie GmbH (Taufkirchen, Germany). The tubulin-specific dye reagent SiR-tubulin kit (SC002) and verapamil were purchased from Spirochrome AG (Stein am Rhein, Switzerland), the nuclei stain H33342 was from Thermo Fisher Scientific (Waltham, MA, USA).
(§6) Cultivation was routinely done in T-75 flasks in a humidified atmosphere with 5% CO2 at 37 °C until subconfluency (~ 70-80%) was reached, and the cells were ready for subsequent sub-culturing or assay usage. For that, the adherent cells were rinsed with PBS and detached with trypsin/EDTA (0.05% in PBS) prior to cell passaging and seeding.
(§7) Cell viability assay - methodology
(§8) The impacts of the newly synthesized dolastatin derivatives analogs on the viability and proliferation of the three human cancer cell lines were investigated by performing fluorometric resazurin-based cell viability assays, following a protocol well established in our lab.[3,4] In 3 R. Kufka, R. Rennert, G. N. Kaluđerović, L. Weber, W. Richter, L. A. Wessjohann, Beilstein J. Org. Chem.
(§9) 4 Y. T. H. Lam, J. Hoppe, Q. N. Dang; A. Porzel, A. Soboleva, W. Brandt, R. Rennert, H. Hussain, M. D. Davari, […]
(§10) brief, the cells were seeded in low densities in 96-well plates (PC-3: 3.000 cells/well; HCT-116: 5.000 cells/well; MDA-MB-468: 10.000 cells/well) yielding a seeding confluency of ~ 10 – 20%, and were allowed to adhere overnight. Subsequently, the cells were treated for 48 h with dilutions series (25.6 pM – 10 µM in 5-fold dilutions) of the test compounds (1 mM DMSO stocks). For control measures, cells were treated in parallel with 1% DMSO (negative control, representing the final DMSO content of the highest concentrated sample point, for data normalization set to 100% cell viability) and 100 µM digitonin (positive control, for data normalization set to 0% cell viability). After finalization of the 48 h incubation, the incubation media were discarded, and cells were rinsed once with PBS. Resazurin solution in basal medium

The test system of data set [2] is MDA-MB-468 cells. The conditions noted are these: 48 h. As for the experimental part: as §1, §2, §3, §4, §5, §6, §7, §8, §9, §10
Data set [3] deals with PC-3 cells. The conditions noted are these: 48 h. As for the experimental part: as §1, §2, §3, §4, §5, §6, §7, §8, §9, §10
In data set [4] the test system is microtubule network in PC-3 cells.
Data set [5] relates to PC-3, HCT-116 and MDA-MB-468 cells. As to conditions: all cancer cells tested; resazurin, 48 h (Figure S84). As for the experimental part: as §10
(In general: Resazurin is reduced to fluorescent resorufin, in cell work by metabolically active cells.)

pIC50: −log10 of the molar value. *1 amine or outer side, *2 acyl side, *3 side chain or, on linkers, in order; H or OH if unused. Where a SMILES comes first, the peptide text is derived from it. [ ]: non-standard residue; d: D form. The star is where a group is joined. N(CH2CH2CO)Gly = O=C(CN(CCC(=O)[*:3])[*:1])[*:2]; NMe2Val = CC(C)[C@@H](C(=O)*)N(C)C; NHhexadecyl = CCCCCCCCCCCCCCCCN*; X1 = O=C(CN(Cc1cncs1)[*:1])[*:2]; NFurfurylGly = O=C(O)CNCc1ccco1; NMe(benzyl) = CN(Cc1ccccc1)*; NMeV = CN[C@H](C(=O)O)C(C)C; X2 = O=C(NCCCCN*)OCc1ccccc1; Nphe = O=C(O)CNCc1ccccc1; NHcHex = C1CCC(N*)CC1; NHBn = c1ccc(CN*)cc1; NHHex = CCCCCCN*; NHBu = CCCCN*

One may read the pIC50 as the IC50 on a negative log10 scale, so that one unit is a factor of ten. High values mean a small IC50, low ones a large IC50. For `CCCCNC(=O)CN(Cc1cncs1)C(=O)[C@@H]1CCCN1C(=O)[C@@H]1CCCN1C(=O)[C@H](C(C)C)N(C)C(=O)[C@@H](NC(=O)[C@H](C(C)C)N(C)C)C(C)C` [Peptide 5h] (NMe2Val-V[NMeV]PP[X1]-NHBu), the negative-log IC50 (pIC50) is 7.30 in data set [1], 7.62 in data set [2] and 7.52 in data set [3]. Also, the “cell and nuclear morphology after treatment” value in data set [4] is “enlarged and showed strongly fragmented nuclei”. Further, in data set [4], the “effect on microtubule structure” value is “microtubule networks appear to be stabilized rather than destabilized”.
Take `CC(C)[C@H](NC(=O)[C@H](C(C)C)N(C)C)C(=O)N(C)[C@H](C(=O)N1CCC[C@H]1C(=O)N1CCC[C@H]1C(=O)N(CC(=O)NCCCCNC(=O)OCc1ccccc1)Cc1ccccc1)C(C)C` [Peptide 5e] (NMe2Val-V[NMeV]PP[Nphe]-X2): the pIC50 in data set [1] is 5.37; in data set [2], 5.92; in data set [3], 5.80.
Taken in the same sequence, the figures for `CCCCCCNC(=O)CN(Cc1ccccc1)C(=O)[C@@H]1CCCN1C(=O)[C@@H]1CCCN1C(=O)[C@H](C(C)C)N(C)C(=O)[C@@H](NC(=O)[C@H](C(C)C)N(C)C)C(C)C` [Peptide 5b] (NMe2Val-V[NMeV]PP[Nphe]-NHHex) were 5.14, 5.68 and approximately 5.30.
For `CCCCNC(=O)CN(Cc1ccco1)C(=O)[C@@H]1CCCN1C(=O)[C@@H]1CCCN1C(=O)[C@H](C(C)C)N(C)C(=O)[C@@H](NC(=O)[C@H](C(C)C)N(C)C)C(C)C` [Peptide 5i] (NMe2Val-V[NMeV]PP[NFurfurylGly]-NHBu), the figures for the negative-log IC50 (pIC50) in data set [1], in data set [2] and in data set [3] were less than 5.00, 5.92 and 5.43, respectively.
For `CC(C)[C@H](NC(=O)[C@H](C(C)C)N(C)C)C(=O)N(C)[C@H](C(=O)N1CCC[C@H]1C(=O)N(CC(=O)NC1CCCCC1)[C@@H](Cc1ccccc1)C(=O)NCc1ccccc1)C(C)C` [Peptide 11d], the pIC50 in data set [1], in data set [2] and in data set [3] was less than 5.00 in each case.
Take `CCCCNC(=O)CN(C(=O)[C@@H]1CCCN1C(=O)[C@H](C(C)C)N(C)C(=O)[C@@H](NC(=O)[C@H](C(C)C)N(C)C)C(C)C)[C@@H](CC(C)C)C(=O)NCc1ccccc1` [Peptide 11c]: the figures for the pIC50 in data set [1], in data set [2] and in data set [3] were 5.10, approximately 5.30 and less than 5.00, respectively.
The matching figures for `CC(C)[C@H](NC(=O)[C@H](C(C)C)N(C)C)C(=O)N(C)[C@H](C(=O)N1CCC[C@H]1C(=O)N(CC(=O)NCc1ccccc1)[C@@H](Cc1ccccc1)C(=O)NCc1ccco1)C(C)C` [Peptide 11f]: less than 5.00, less than 5.00 and less than 5.00.
`COc1ccc(CNC(=O)[C@H](CC(C)C)N(CC(=O)NCc2ccccc2)C(=O)[C@@H]2CCCN2C(=O)[C@H](C(C)C)N(C)C(=O)[C@@H](NC(=O)[C@H](C(C)C)N(C)C)C(C)C)cc1` [Peptide 11a]: the negative logarithm of the IC50 (pIC50) in data set [1], in data set [2] and in data set [3] was less than 5.00 throughout.
Consider `CC(C)[C@H](NC(=O)[C@H](C(C)C)N(C)C)C(=O)N(C)[C@H](C(=O)N1CCC[C@H]1C(=O)N1CCC[C@H]1C(=O)NCc1ccccc1)C(C)C` [cemadotin, reference compound] (NMe2Val-V[NMeV]PP-NHBn), for which the negative-log IC50 (pIC50) in data set [1] is 9.00; in data set [2] it was 8.60; in data set [3], 8.89.
Taken in the same sequence, the figures for `CC(C)[C@H](NC(=O)[C@H](C(C)C)N(C)C)C(=O)N(C)[C@H](C(=O)N1CCC[C@H]1C(=O)N1CCC[C@H]1C(=O)N(CC(=O)NCc1ccccc1)Cc1ccccc1)C(C)C` [Peptide 5c] (NMe2Val-V[NMeV]PP[Nphe]-NHBn) were 5.64, 5.96 and 5.72.
Taken in the same sequence, the figures for `CC(C)[C@H](NC(=O)[C@H](C(C)C)N(C)C)C(=O)N(C)[C@H](C(=O)N1CCC[C@H]1C(=O)N(CC(=O)NC1CCCCC1)[C@@H](Cc1ccccc1)C(=O)NCc1ccco1)C(C)C` [Peptide 11e] were less than 5.00, less than 5.00 and 5.03.
The matching figures for `CC(C)C[C@@H](C(=O)NCc1ccccc1)N(CC(=O)NC(C)(C)C)C(=O)[C@@H]1CCCN1C(=O)[C@H](C(C)C)N(C)C(=O)[C@@H](NC(=O)[C@H](C(C)C)N(C)C)C(C)C` [Peptide 11b]: less than 5.00, less than 5.00 and less than 5.00.
Regarding `CCCCCCCCCCCCCCCCNC(=O)CCN(CC(=O)NC1CCCCC1)C(=O)[C@@H]1CCCN1C(=O)[C@H](C(C)C)N(C)C(=O)[C@@H](NC(=O)[C@H](C(C)C)N(C)C)C(C)C` [Peptide 11i] (NMe2Val-V[NMeV]P[N(CH2CH2CO)Gly](NHhexadecyl)-NHcHex), the negative logarithm of the IC50 (pIC50) in data set [1] was 5.19; in data set [2] it was 5.47; in data set [3], 5.64. For the same compound, the cytotoxic profile entry in data set [5] is reported as “inducing the death of all cancer cells tested”.
On to `CC(C)[C@H](NC(=O)[C@H](C(C)C)N(C)C)C(=O)N(C)[C@H](C(=O)N1CCC[C@H]1C(=O)N1CCC[C@H]1C(=O)N(C)Cc1ccccc1)C(C)C` [Peptide 5j, N‐Methyl‐cemadotin] (NMe2Val-V[NMeV]PP-{NMe(benzyl)}), for which the negative-log IC50 (pIC50) in data set [1], in data set [2] and in data set [3] was less than 5.00 throughout.
Consider `CCCCNC(=O)CN(Cc1ccccc1)C(=O)[C@@H]1CCCN1C(=O)[C@@H]1CCCN1C(=O)[C@H](C(C)C)N(C)C(=O)[C@@H](NC(=O)[C@H](C(C)C)N(C)C)C(C)C` [Peptide 5a] (NMe2Val-V[NMeV]PP[Nphe]-NHBu), for which the results for the negative-log IC50 (pIC50) in data set [1], in data set [2] and in data set [3] were 5.66, 6.09 and 5.82, respectively. Also, the “effect on microtubule structure” value in data set [4] is “acts in the initial phase of microtubule network disruption”.
As to `CC(C)[C@H](NC(=O)[C@H](C(C)C)N(C)C)C(=O)N(C)[C@H](C(=O)N1CCC[C@H]1C(=O)N1CCC[C@H]1C(=O)N(CC(=O)NC1CCCCC1)Cc1ccccc1)C(C)C` [Peptide 5d] (NMe2Val-V[NMeV]PP[Nphe]-NHcHex), the negative logarithm of the IC50 (pIC50) was 5.72 in data set [1], 5.85 in data set [2] and 5.92 in data set [3].
Consider `CCCCCCNC(=O)CN(C(=O)[C@@H]1CCCN1C(=O)[C@H](C(C)C)N(C)C(=O)[C@@H](NC(=O)[C@H](C(C)C)N(C)C)C(C)C)[C@@H](C)C(=O)NCc1ccccc1` [Peptide 11h], for which the pIC50 in data set [3] is less than 5.00.
`CCCCNC(=O)CN(C(=O)[C@@H]1CCCN1C(=O)[C@H](C(C)C)N(C)C(=O)[C@@H](NC(=O)[C@H](C(C)C)N(C)C)C(C)C)[C@@H](C)C(=O)NCc1ccc(OC)cc1` [Peptide 11g]: the pIC50 in data set [1], in data set [2] and in data set [3] was less than 5.00 each time.
With `CCCCCCCCCCCCCCCCNC(=O)CN(Cc1ccccc1)C(=O)[C@@H]1CCCN1C(=O)[C@@H]1CCCN1C(=O)[C@H](C(C)C)N(C)C(=O)[C@@H](NC(=O)[C@H](C(C)C)N(C)C)C(C)C` [Peptide 5f] (NMe2Val-V[NMeV]PP[Nphe]-NHhexadecyl), the pIC50 in data set [1] was 5.57; in data set [2], 5.68; in data set [3], 5.68.

(Values after paper PMC12503912 (Chemmedchem, 2025).)
